Test results reported in ChEMBL document CHEMBL6087464, “Design, Synthesis, and Biological Evaluation of 3,4-Dihydroisoquinolin-1(2H)-one Derivatives as Protein Arginine Methyltransferase 5 Inhibitors for the Treatment of Non-Hodgkin's Lymphoma” (J Med Chem, 2025).
pIC50: −log10 of the molar value.

Assays:
[1] = target: Protein arginine N-methyltransferase 1 (Homo sapiens, UniProt Q99873); assay: Inhibition of PRMT1 (unknown origin)
[2] = system: Z-138; assay: Induction of apoptosis in human Z138 cells assessed as early apoptotic cells at 2.0 nM incubated for 168 hrs by Annexin V-FITC/PI staining based flow cytometric analysis (reference value: 1.68 %); assay type: functional
[3] = Oral bioavailability in Sprague-Dawley rat at 10 mg/kg by LC-MS/MS analysis; assay type: ADME, organism-based; conditions: in vivo
[4] = system: Z-138; assay: Induction of apoptosis in human Z138 cells assessed as late apoptotic cells at 10.0 nM incubated for 168 hrs by Annexin V-FITC/PI staining based flow cytometric analysis (reference value: 0.37 %); assay type: functional
[5] = MRT (0 to t) in Sprague-Dawley rat at 2 mg/kg, iv by LC-MS/MS analysis; assay type: ADME, organism-based; conditions: in vivo
[6] = target: Protein arginine N-methyltransferase 6 (Homo sapiens, UniProt Q96LA8); assay: Inhibition of PRMT6 (unknown origin)
Sequence of Protein arginine N-methyltransferase 6 (Q96LA8 whole entry): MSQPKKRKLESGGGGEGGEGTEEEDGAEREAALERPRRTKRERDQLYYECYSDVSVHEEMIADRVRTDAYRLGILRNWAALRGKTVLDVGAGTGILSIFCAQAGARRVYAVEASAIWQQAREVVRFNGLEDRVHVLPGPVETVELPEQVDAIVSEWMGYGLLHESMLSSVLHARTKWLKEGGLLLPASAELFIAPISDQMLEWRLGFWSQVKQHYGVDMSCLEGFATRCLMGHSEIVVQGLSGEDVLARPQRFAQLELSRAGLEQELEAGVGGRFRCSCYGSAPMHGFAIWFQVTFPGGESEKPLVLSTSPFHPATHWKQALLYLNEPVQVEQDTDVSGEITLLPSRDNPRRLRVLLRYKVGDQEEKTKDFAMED

[7] = system: Z-138; assay: Induction of apoptosis in human Z138 cells assessed as late apoptotic cells at 50.0 nM incubated for 168 hrs by Annexin V-FITC/PI staining based flow cytometric analysis (reference value: 0.37 %); assay type: functional
[8] = Half-life in Sprague-Dawley rat at 2 mg/kg, iv by LC-MS/MS analysis; assay type: ADME, organism-based; conditions: in vivo
[9] = system: Z-138; assay: Induction of apoptosis in human Z138 cells assessed as late apoptotic cells at 0.4 nM incubated for 168 hrs by Annexin V-FITC/PI staining based flow cytometric analysis (reference value: 0.37 %); assay type: functional
[10] = target: Protein arginine N-methyltransferase 8 (Homo sapiens, UniProt Q9NR22); assay: Inhibition of PRMT8 (unknown origin)
Sequence of Protein arginine N-methyltransferase 8 (Q9NR22 whole entry): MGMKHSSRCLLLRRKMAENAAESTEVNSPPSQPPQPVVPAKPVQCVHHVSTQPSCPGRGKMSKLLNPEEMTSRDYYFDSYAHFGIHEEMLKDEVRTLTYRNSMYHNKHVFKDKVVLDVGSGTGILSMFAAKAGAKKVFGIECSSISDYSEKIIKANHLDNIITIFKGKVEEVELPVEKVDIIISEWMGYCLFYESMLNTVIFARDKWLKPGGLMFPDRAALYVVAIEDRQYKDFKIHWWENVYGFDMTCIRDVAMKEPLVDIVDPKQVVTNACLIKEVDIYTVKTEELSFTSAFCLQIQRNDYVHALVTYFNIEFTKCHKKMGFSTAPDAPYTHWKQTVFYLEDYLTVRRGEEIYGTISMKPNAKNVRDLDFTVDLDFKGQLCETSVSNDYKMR

[11] = Tmax in Sprague-Dawley rat at 10 mg/kg, po by LC-MS/MS analysis; assay type: ADME, organism-based; conditions: Sprague-Dawley, in vivo, read-out: Tmax
[12] = Clearance in Sprague-Dawley rat at 2 mg/kg, iv by LC-MS/MS analysis; assay type: ADME, organism-based; conditions: in vivo
[13] = target: Protein arginine N-methyltransferase 3 (Homo sapiens, UniProt O60678); assay: Inhibition of PRMT3 (unknown origin)
Sequence of Protein arginine N-methyltransferase 3 (O60678 whole entry): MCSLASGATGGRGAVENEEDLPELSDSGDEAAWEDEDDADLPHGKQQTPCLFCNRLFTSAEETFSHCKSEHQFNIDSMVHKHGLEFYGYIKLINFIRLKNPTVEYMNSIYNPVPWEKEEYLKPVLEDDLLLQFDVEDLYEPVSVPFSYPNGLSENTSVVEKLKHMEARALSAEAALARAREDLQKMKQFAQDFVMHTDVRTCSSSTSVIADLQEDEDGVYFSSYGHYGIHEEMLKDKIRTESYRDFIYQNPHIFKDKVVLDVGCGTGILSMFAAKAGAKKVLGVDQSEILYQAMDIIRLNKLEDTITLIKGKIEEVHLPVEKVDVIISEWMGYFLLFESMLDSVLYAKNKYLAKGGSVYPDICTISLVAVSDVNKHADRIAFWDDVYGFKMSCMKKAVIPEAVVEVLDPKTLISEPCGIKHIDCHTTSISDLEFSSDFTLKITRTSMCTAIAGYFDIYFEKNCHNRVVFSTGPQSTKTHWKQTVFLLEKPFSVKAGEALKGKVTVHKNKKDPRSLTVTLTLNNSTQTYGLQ

[14] = Hematological toxicity in human CD34-positive hematopoietic stem/progenitor cell supplemented with erythroid lineage assessed as reduction in cell viability incubated for 14 days by luminometric analysis; assay type: cell-based
[15] = system: Z-138; assay: Cell cycle arrest in human Z138 cells assessed as accumulation of cells at G0/G1 phase incubated for 168 hrs by RNase A/PI staining based flow cytometric analysis; assay type: functional; conditions: dose 0.4-50 nM
[16] = system: Z-138; assay: Cell cycle arrest in human Z138 cells assessed as increase in DNA content at 50.0 nM incubated for 168 hrs by RNase A/PI staining based flow cytometric analysis relative to control; assay type: functional
[17] = system: Z-138; assay: Induction of apoptosis in human Z138 cells assessed as late apoptotic cells at 2.0 nM incubated for 168 hrs by Annexin V-FITC/PI staining based flow cytometric analysis (reference value: 0.37 %); assay type: functional
[18] = system: Z-138; assay: Induction of apoptosis in human Z138 cells assessed as necrotic cells at 50.0 nM incubated for 168 hrs by Annexin V-FITC/PI staining based flow cytometric analysis (reference value: 3.54 %); assay type: functional
[19] = AUC (0 to t) in Sprague-Dawley rat at 10 mg/kg, po by LC-MS/MS analysis; assay type: ADME, organism-based; conditions: Sprague-Dawley, in vivo
[20] = system: Z-138; assay: Induction of apoptosis in human Z138 cells assessed as early apoptotic cells at 10.0 nM incubated for 168 hrs by Annexin V-FITC/PI staining based flow cytometric analysis (reference value: 1.68 %); assay type: functional
[21] = Hematological toxicity in human CD34-positive hematopoietic stem/progenitor cell supplemented with myeloid lineage assessed as reduction in cell viability incubated for 14 days by luminometric analysis; assay type: cell-based
[22] = target: T1, Histone-arginine methyltransferase CARM1 (Homo sapiens, UniProt Q86X55); assay: Inhibition of PRMT4 (unknown origin)
T1 sequence (Q86X55 whole entry): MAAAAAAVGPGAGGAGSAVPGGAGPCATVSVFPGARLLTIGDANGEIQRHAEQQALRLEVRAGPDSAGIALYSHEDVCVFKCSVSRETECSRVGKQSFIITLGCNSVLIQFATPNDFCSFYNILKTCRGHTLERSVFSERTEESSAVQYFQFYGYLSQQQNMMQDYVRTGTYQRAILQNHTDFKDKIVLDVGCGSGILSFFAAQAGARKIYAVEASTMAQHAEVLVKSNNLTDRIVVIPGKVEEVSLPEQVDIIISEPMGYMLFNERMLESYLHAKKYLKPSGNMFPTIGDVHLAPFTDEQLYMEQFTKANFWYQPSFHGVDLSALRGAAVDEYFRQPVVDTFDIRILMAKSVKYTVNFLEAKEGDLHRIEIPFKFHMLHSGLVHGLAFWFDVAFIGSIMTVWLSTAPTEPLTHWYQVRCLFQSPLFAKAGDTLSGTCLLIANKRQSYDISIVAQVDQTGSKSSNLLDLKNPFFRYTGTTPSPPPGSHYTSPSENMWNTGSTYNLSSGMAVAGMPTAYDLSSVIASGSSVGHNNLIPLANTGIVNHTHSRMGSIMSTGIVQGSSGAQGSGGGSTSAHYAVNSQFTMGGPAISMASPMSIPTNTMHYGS

[23] = system: Z-138; assay: Induction of apoptosis in human Z138 cells assessed as necrotic cells at 10.0 nM incubated for 168 hrs by Annexin V-FITC/PI staining based flow cytometric analysis (reference value: 3.54 %); assay type: functional
[24] = system: Z-138; assay: Induction of apoptosis in human Z138 cells assessed as viable cells at 0.4 nM incubated for 168 hrs by Annexin V-FITC/PI staining based flow cytometric analysis (reference value: 94.4 %); assay type: functional; conditions: read-out: Activity
[25] = Half-life in Sprague-Dawley rat at 10 mg/kg, po by LC-MS/MS analysis; assay type: ADME, organism-based; conditions: Sprague-Dawley, in vivo
[26] = system: Z-138; assay: Induction of apoptosis in human Z138 cells assessed as necrotic cells at 0.4 nM incubated for 168 hrs by Annexin V-FITC/PI staining based flow cytometric analysis (reference value: 3.54 %); assay type: functional
[27] = system: Z-138; assay: Induction of apoptosis in human Z138 cells assessed as viable cells at 2.0 nM incubated for 168 hrs by Annexin V-FITC/PI staining based flow cytometric analysis (reference value: 94.4 %); assay type: functional; conditions: read-out: Activity
[28] = Hematological toxicity in human CD34-positive hematopoietic stem/progenitor cell supplemented with megakaryocytic lineage assessed as reduction in cell viability incubated for 14 days by luminometric analysis; assay type: cell-based
[29] = system: Z-138; assay: Induction of apoptosis in human Z138 cells assessed as viable cells at 50.0 nM incubated for 168 hrs by Annexin V-FITC/PI staining based flow cytometric analysis (reference value: 94.4 %); assay type: functional; conditions: read-out: Activity
[30] = Cmax in Sprague-Dawley rat at 2 mg/kg, iv by LC-MS/MS analysis; assay type: ADME, organism-based; conditions: in vivo
[31] = system: Z-138; assay: Induction of apoptosis in human Z138 cells assessed as viable cells at 10.0 nM incubated for 168 hrs by Annexin V-FITC/PI staining based flow cytometric analysis (reference value: 94.4 %); assay type: functional; conditions: read-out: Activity

Sequence of Protein arginine N-methyltransferase 1 (Q99873 whole entry): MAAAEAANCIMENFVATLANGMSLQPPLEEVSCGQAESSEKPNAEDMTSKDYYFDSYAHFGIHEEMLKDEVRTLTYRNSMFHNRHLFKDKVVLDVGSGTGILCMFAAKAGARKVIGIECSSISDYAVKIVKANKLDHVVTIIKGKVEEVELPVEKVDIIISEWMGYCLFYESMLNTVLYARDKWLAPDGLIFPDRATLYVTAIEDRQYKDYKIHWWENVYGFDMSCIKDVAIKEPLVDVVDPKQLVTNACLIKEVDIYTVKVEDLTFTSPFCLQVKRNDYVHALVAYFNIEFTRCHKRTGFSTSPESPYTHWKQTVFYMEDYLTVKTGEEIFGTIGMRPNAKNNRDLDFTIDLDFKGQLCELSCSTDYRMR

Row | Structure (SMILES) | pIC50 [1] | Activity [2] | bioavailability [3] | Activity [4] | MRT last [5] | pIC50 [6] | Activity [7] | half-life [8] | Activity [9] | pIC50 [10] | Tmax [11] | clearance [12] | pIC50 [13] | IC50 at 14 days [14] | Activity [15] | Activity [16] | Activity [17] | Activity [18] | AUC(0-t) [19] | Activity [20] | other results
1 | CC(=O)N1CC2(CC(Nc3cc4c(cn3)C3(CC3)CN(C[C@H](O)CN3CCc5ccccc5C3)C4=O)C2)C1 | < 5.00 | 22% | 26.7% | 32.4% | 30 min | < 5.00 | 11.4% | 24 min | 0.44% | < 5.00 | 6 min | 41.7 mL/min/kg | < 5.00 | 216 nM | Dose-dependent-effect | 71.6% | 9.25% | 2.87% | 1030 ng·h/mL | 54.5% | IC50 at 14 days [21]: 511 nM; pIC50 [22]: < 5.00; Activity [23]: 3.87%; viability at 0.0004 µM [24]: 95.3%; half-life [25]: 132 min; Activity [26]: 2.41%; viability at 0.002 µM [27]: 62.1%; IC50 at 14 days [28]: 106 nM; viability at 0.05 µM [29]: 7.61%; Cmax [30]: 1370 ng/mL; viability at 0.01 µM [31]: 9.21%
2 | CC(=O)N1CCC(Nc2cc(C(=O)NC[C@H](O)CN3CCc4ccccc4C3)ncn2)CC1 [PEMRAMETOSTAT] | < 5.00 | 1.97% | 13.5% | 1.53% | 24 min | < 5.00 | 7.38% | 18 min | 0.33% | < 5.00 | 78 min | 56.7 mL/min/kg | < 5.00 | 43 nM | Dose-dependent-effect | 59.2% | 0.31% | 5.13% | 404 ng·h/mL | 7.12% | IC50 at 14 days [21]: 222 nM; pIC50 [22]: < 5.00; Activity [23]: 5.31%; viability at 0.0004 µM [24]: 95.6%; half-life [25]: 36 min; Activity [26]: 2.52%; viability at 0.002 µM [27]: 95.1%; IC50 at 14 days [28]: 55 nM; viability at 0.05 µM [29]: 53.4%; Cmax [30]: 1830 ng/mL; viability at 0.01 µM [31]: 86%
